Assay results as given in patent publication US8022091B2, “Triazole derivative” (Taisho Pharmaceutical Co., Ltd., priority 2006, dated 2011).

How the values were obtained:
[1] = molecular target: T1, human Edg-1 (S1P1) (Homo sapiens, UniProt P21453); test: S1P1 binding assay: inhibition of [33P]-S1P binding to membrane fraction of HEK-293 cells transferred with the human Edg-1 (S1P1) gene; conditions: for IC50: [33P]-S1P 0.1 nM, human Edg-1 (S1P1) HEK-293 membrane fraction, 1 h at 30° C., read-out: IC50 (concentration at which binding in the absence of the test compound was inhibited by 50%)
T1 construct: expressed in transfected cells; host or cells: HEK-293
Procedure, shortened: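 Membranes from S1P1-transfected HEK-293 cells incubated 1 h at 30° C in pH 7.4 Tris buffer with fatty acid-free BSA, 0.1 nM [33P]-S1P and test compound (0.1% DMSO). Filter-bound radioactivity was counted; inhibition corrected for binding to untransfected-cell membranes, and IC50 derived from concentration series.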

[2] = test compound 10 μM, inhibition of [33P]-S1P binding, membrane fraction

T1 sequence (P21453 whole entry): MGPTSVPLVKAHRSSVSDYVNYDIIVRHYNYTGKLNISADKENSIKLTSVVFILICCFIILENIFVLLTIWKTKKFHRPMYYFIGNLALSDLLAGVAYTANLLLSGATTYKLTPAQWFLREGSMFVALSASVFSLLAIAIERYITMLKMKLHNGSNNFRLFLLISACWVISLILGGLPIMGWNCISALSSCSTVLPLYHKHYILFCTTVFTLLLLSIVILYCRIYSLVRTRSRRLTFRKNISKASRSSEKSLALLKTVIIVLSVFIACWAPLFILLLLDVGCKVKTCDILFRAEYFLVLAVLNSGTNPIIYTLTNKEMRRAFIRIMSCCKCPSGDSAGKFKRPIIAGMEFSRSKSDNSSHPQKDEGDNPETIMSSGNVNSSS

Row | Compound | IC50 [1] | inhibition at 10 µM [1, 2] | melting point | Binding assay (membrane) % inhibition (10 μM) ([1]; test compound 10 μM, inhibition of [33P]-S1P binding, membrane fraction, 10 µM)
1 | CCn1c(Oc2cccc(N3CCN(C)CC3)c2)nnc1[C@@H](C)NS(=O)(=O)c1ccc2ccc(Cl)cc2c1 [Compound 665] | ≤ 35 nM | 100% | 197 to 201 °C | –
2 | CCn1c(Oc2cccc(N3CCN(C)CC3)c2)nnc1[C@@H](C)NS(=O)(=O)c1ccc2cccc(Cl)c2c1 [Compound 666] | ≤ 10 nM | 97.9% | 143.5 to 144.5 °C | –
3 | CCn1c(Oc2cccc(N3CCN(C)CC3)c2)nnc1[C@@H](C)NS(=O)(=O)c1ccc2c(Br)cccc2c1 [Compound 667] | ≤ 10 nM | 99.2% | 207 to 208 °C | –
4 | CCn1c(Oc2cccc(N3CCN(C(C)C)CC3)c2)nnc1[C@@H](C)NS(=O)(=O)c1ccc2cccc(Cl)c2c1 [Compound 669] | ≤ 10 nM | 100% | 131.5 to 132.5 °C | –
5 | CCn1c(Oc2ccc3cc[nH]c3c2)nnc1[C@@H](C)NS(=O)(=O)c1ccc2cccc(Cl)c2c1 [Compound 670] | 5.2 nM | 101% | 214.5 to 218 °C | –
6 | CCn1c(Oc2ccc(F)c(N3CCN(C)CC3)c2)nnc1[C@@H](C)NS(=O)(=O)c1ccc2c(Cl)cccc2c1 [Compound 680] | 1.4 nM | 100% | 169.5 to 170.5 °C | –
7 | CCn1c(Oc2ccc(F)c(N3CCN(C)CC3)c2)nnc1[C@@H](C)NS(=O)(=O)c1ccc(Cl)c(Cl)c1 [Compound 681] | ≤ 10 nM | 100% | 189 to 189.5 °C | –
8 | CCn1c(Oc2ccc(F)cc2)nnc1C(C)(C)NS(=O)(=O)c1ccc(Cl)c(Cl)c1 [Compound 682] | – | 76.6% | 228 to 228.5 °C | –
9 | CCn1c(Oc2cccc(N3CCNCC3)c2)nnc1[C@@H](C)NS(=O)(=O)c1ccc(Cl)c(Cl)c1 [Compound 683, 3,4-Dichloro-N-[(R)-1-[4-ethyl-5-(3-piperazin-1-yl-phenoxy)-4H-[1,2,4]triazol-3-yl]-ethyl]-benzenesulfonamide] | ≤ 10 nM | 100% | 175 to 178 °C | –
10 | CCn1c(Oc2ccc(F)cc2)nnc1C1(NS(=O)(=O)c2ccc(Cl)c(Cl)c2)CC1 [Compound 685] | – | 65.1% | 255 to 260 °C | –
11 | CCn1c(Oc2cccc(N3CCN(C)CC3)c2)nnc1C1(NS(=O)(=O)c2ccc(Cl)c(Cl)c2)CC1 [Compound 686] | – | 92.7% | 220.5 to 221 °C | –
12 | CCn1c(Oc2cccc(N3CCNCC3)c2)nnc1[C@@H](C)NS(=O)(=O)c1ccc2c(Cl)cccc2c1 [Compound 688] | 1.5 nM | 100% | 192 to 193 °C | –
13 | CCn1c(Oc2cccc(N3CCN(C)CC3)c2)nnc1[C@@H](C)NS(=O)(=O)c1ccc2c(I)cccc2c1 [Compound 690] | ≤ 10 nM | 102% | 198 to 200 °C | –
14 | CCn1c(Oc2cccc(N3CCN(C)CC3)c2)nnc1[C@@H](C)NS(=O)(=O)c1ccc2c(I)cccc2c1 [Compound 691] | 2.6 nM | – | 180 to 182 °C | 98.5%
15 | CCn1c(Oc2cccc(N3CCN(C)CC3)c2)nnc1[C@@H](C)NS(=O)(=O)c1ccc2c(C#N)cccc2c1 [Compound 692] | 5.1 nM | 98.5% | 227 to 229 °C | –
16 | CCn1c(Oc2cccc(N3CCN(C)CC3)c2)nnc1[C@@H](C)NS(=O)(=O)c1ccc2c(S(C)(=O)=O)cccc2c1 [Compound 693] | – | 97.7% | 158 to 161 °C | –
17 | CCn1c(Oc2cccc(N3CCN(C)CC3)c2)nnc1[C@@H](C)NS(=O)(=O)c1ccc2c(Cl)ccc(Cl)c2c1 [Compound 694] | 2.9 nM | 106% | 189 to 191 °C | –
